Test results as given in patent US20210023223A1, “HYDROCARBON / LIPID - CAROTENOID COMPLEXES” (IP SCIENCE LIMITED, priority 2018, published 2021).

Experiments:
[1] = Acid induced degradation at pH 2.5, gas chromatography; type: physicochemical
Procedure: Briefly, 100 μl of serum and 2 ml of the stock solution were combined in screw-capped glass tubes. The tubes were capped and heated at 100 C for 60 min. The tubes were allowed to cool down to the room temperature and were extracted twice with 1 ml hexane. The combined hexane solution was evaporated under vacuum (Scan Speed 32 centrifuge) and the residue reconstituted to the volume of 50 μl with of hexane, transferred to GC vials, and capped under nitrogen.
Temperature program, initial: 130 C with a 4 min hold; ramp: 4 C/min to 280 C with a 2 min hold. Carrier gas was He, with a linear velocity of 30 cm/s. Fatty acid analysis was performed by injection of 1 μl of each sample at a split ratio of 50:1. The FID and the Injection port temperature was 300 C. The sampling frequency was 40 Hz. Fatty acids identification was performed with SUPELCO 37 COMPONENT FAME MIX (Supelco, USA). DHA concentrations were calculated on the basis of the standard concentrations. Analytical standard of DHA and PTC (Sigma, USA) were used in the assay.

[2] = system: individuals with a moderate hyperlipidemia; experiment: Clinical Trial DHA-Lycopene, 4 weeks; type: in vivo, human; settings: for LDL / Triglycerides: medians, DHA 250 mg and/or lycopene 7 mg once a day
Procedure: To validate this, a clinical trial was undertaken. 32 individuals aged 40-65 years old with a moderate hyperlipidemia (serum triglycerides, TG, >150 mg/dl and LDL from 130 to 160 mg/dl). They were randomised and split in four groups of 8: • The first was supplemented with a 250 mg of conventional formulation of DHA without lycopene (CF-DHA), • the second with 7 mg of lycopene, • the third with 250 mg of DHA and 7 mg of lycopene co-ingested at the same time but as two separate products, and • the fourth group received 7 mg lycopene formulated with 250 mg of DHA (LF-DHA). All products were taken once a day with the main meal. The duration of the trial was for 4 weeks.

[3] = DHA preparation without lycopene
[4] = DHA preparation with lycopene 1 mg per 1 g of DHA

Compound | GC peak Area, %, Baseline [1, 3] [%] | GC peak Area, Baseline [1, 3] | GC peak Area, %, After 2 hours at pH 2.5 [1, 4] [%] | GC peak Area, %, Baseline [1, 4] [%] | GC peak Area, After 2 hours at pH 2.5 [1, 4] | GC peak Area, Baseline [1, 4] | GC peak Area, %, After 2 hours at pH 2.5 [1, 3] [%] | GC peak Area, After 2 hours at pH 2.5 [1, 3] | LDL ([2]; 0 w) [mg/dL] | Triglycerides ([2]; 0 w) [mg/dL] | LDL ([2]; 4 w) [mg/dL] | Triglycerides ([2]; 4 w) [mg/dL] | Reduction of medians of serum TG concentration ([2]; 4 weeks) [mg/dL] | Reduction in LDL ([2]; 4 weeks, p<0.05) [mg/dL]
CCCCCCCCCCCCCCCCCCCC(=O)O [Arachidic] | 0.10 | 1,032 | – | – | – | – | – | – | – | – | – | – | – | –
CCCCCCCCCCCCCCCC(=O)O [Palmitic] | 18.45 | 197,526 | 17.52 | 17.82 | 186,438 | 171,664 | 17.66 | 118,649 | – | – | – | – | – | –
CCC=CCC=CCC=CCC=CCC=CC/C=C\CCC(=O)O [cis-4,7,10,13,16,19-Docosahexaenoic] | 42.63 | 456,572 | 43.60 | 42.55 | 464,051 | 409,974 | 43.54 | 292,485 | – | – | – | – | – | –
CCC=CCC=CCC=CCC=CC/C=C\CCCC(=O)O [cis-5,8,11,14,17-eicosapentaenoic] | 1.07 | 11,447 | 1.01 | 1.03 | 10,759 | 9,937 | 0.99 | 6679 | – | – | – | – | – | –
CCCCC/C=C\C/C=C\C/C=C\C/C=C\CCCC(=O)O [Arachidonic] | 0.83 | 8,907 | 0.81 | 0.82 | 8,565 | 7,859 | 0.79 | 5323 | – | – | – | – | – | –
CCCCC/C=C\C/C=C\C/C=C\CCCCC(=O)O [gamma-Linolenic] | 0.28 | 3,030 | 0.26 | 0.27 | 2,767 | 2,627 | 0.28 | 1,851 | – | – | – | – | – | –
CCCCCCCCCCCCCCC(=O)O [Pentadecanoic] | 0.29 | 3,120 | 0.27 | 0.26 | 2,843 | 2,511 | 0.26 | 1,716 | – | – | – | – | – | –
cis-8,11,14,17-eicosapentaenoic | 0.47 | 5,002 | 0.55 | 0.46 | 5,889 | 4,391 | 0.42 | 2800 | – | – | – | – | – | –
CCCCCCCCCCCC(=O)O [Lauric] | 0.16 | 1,718 | 0.15 | 0.14 | 1,605 | 1,354 | – | – | – | – | – | – | – | –
CCCCCCCCCCCCCCCCCC(=O)O [Stearic] | 0.66 | 7,051 | 0.64 | 0.69 | 6,811 | 6,673 | 0.68 | 4597 | – | – | – | – | – | –
CCCCC/C=C\C/C=C\CCCCCCCC(=O)O [Linoleic] | 0.89 | 9,494 | 0.98 | 1.28 | 10,395 | 12,328 | 1.25 | 8396 | – | – | – | – | – | –
CCCCCCCC/C=C/CCCCCCCC(=O)O [Elaidic] | 0.20 | 2,108 | 0.21 | 0.26 | 2,205 | 2,537 | 0.24 | 1629 | – | – | – | – | – | –
CCCCCCCCCCCCCC(=O)O [Myristic] | 6.23 | 73,096 | 6.56 | 6.42 | 69,816 | 61,814 | 6.42 | 43,118 | – | – | – | – | – | –
Linole/alpha-linilenic | 6.53 | 69,917 | 6.42 | 6.63 | 68,330 | 63,846 | 6.72 | 45112 | – | – | – | – | – | –
CC/C=C\C/C=C\C/C=C\C/C=C\C/C=C\C/C=C\CCC(=O)O [DHA, Doxosahexaenoic Acid] | – | – | – | – | – | – | – | – | 155.5 | 191.5 | 153.5 | 185.5 | 27.5 | 19.5
CCCCCC(=O)O [Caproic] | 1.31 | 13,975 | – | – | – | – | – | – | – | – | – | – | – | –
CCCC/C=C\CCCCCCCC(=O)O [Myristoleic] | 0.18 | 1,934 | 0.17 | 0.17 | 1,789 | 1,662 | 0.18 | 1,197 | – | – | – | – | – | –
CCCCCC/C=C\CCCCCCCC(=O)O [Palmitoleic] | 0.11 | 1,219 | 0.16 | 0.17 | 1,710 | 1,598 | 0.19 | 1,278 | – | – | – | – | – | –
CCCCCCCCCCCCCCCCCCCCCC(=O)O [Behenic] | 0.10 | 1,096 | – | – | – | – | – | – | – | – | – | – | – | –
CCCCCCCCCCCCCCCCCCCCCCCC(=O)O [Lignoceric] | 0.14 | 1,518 | 0.17 | 0.17 | 1,775 | 1,613 | 0.17 | 1162 | – | – | – | – | – | –
